{"source": "patent US6486195B1", "about": "“Thermodynamically stable crystal form of 4″-deoxy-4″-epi-methylamino avermectin B1a/B1b benzoic acid salt and processes for its preparation” (Merck & Co., Inc., priority 1993, dated 2002)", "key": {"[1]": {"experiment": "thermodynamic stability of the crystalline forms", "type": "physicochemical", "settings": "among the four crystalline forms A, B, C and D"}, "[2]": {"experiment": "hygroscopicity of the crystal forms", "type": "physicochemical", "settings": "compared with the other crystal forms (A, C, D)"}}, "data": [{"substance": "4″-deoxy-4″-epi-methylamino avermectin B1a/B1b, benzoic acid salt, hemihydrate [Type B]", "values": [{"measurement": "thermodynamic stability of crystalline form", "setting": "[1]", "result": "most thermodynamically stable"}, {"measurement": "hygroscopicity", "setting": "[2]", "result": "significantly less hygroscopic"}]}]}
